Experimental data reported in the supplement of paper PMC10883282.
± gives the standard deviation of the averaged measurements.

What was measured:
Assay in all cases: relative viability vs DMSO control (72 h) (fraction); higher = more viable cells
MES-SA = system: MES-SA
Method in brief: (§1)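 Serially diluted compound, 2.5 µl from source plates spanning 10 mM to 0.0002 mM, was added 24 h after sarcoma cell lines were seeded in 384-well plates at densities targeting 80–90% confluence. Plates then sat 72 h at 37 °C, 5% CO2, with 0.1% DMSO vehicle and a 5 µM positive control. Relative viability came from ATPLite as percent growth, averaged over up to triplicate wells, and was rescaled with 1 as full and 0 as none.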

SK-LMS-1 = system: SK-LMS-1
Method in brief: as §1

SK-ES-1 = system: SK-ES-1
Method in brief: as §1

SYO-1 = system: SYO-1
Method in brief: as §1

SW1353 = system: SW1353
Method in brief: as §1

RD-ES = system: RD-ES
Method in brief: as §1

VA-ES-BJ = system: VA-ES-BJ
Method in brief: as §1

HT1080 = system: HT1080
Method in brief: as §1

RD = system: RD
Method in brief: as §1

KHOS-240S = system: KHOS-240S
Method in brief: as §1

SW982 = system: SW982
Method in brief: as §1

G401 = system: G401
Method in brief: as §1

COc1cc(OC)cc(N(CCNC(C)C)c2ccc3ncc(-c4cnn(C)c4)nc3c2)c1 [Erdafitinib]
Settings	relative viability
G401, 0.00017 µM	0.991 ± 0.018
G401, 0.00051 µM	0.976 ± 0.048
G401, 0.00152 µM	0.933 ± 0.032
G401, 0.00457 µM	0.806 ± 0.027
G401, 0.01372 µM	0.707 ± 0.038
G401, 0.04115 µM	0.591 ± 0.018
G401, 0.1235 µM	0.534 ± 0.017
G401, 0.3704 µM	0.472 ± 0.03
G401, 1.111 µM	0.376 ± 0.025
G401, 3.333 µM	0.233 ± 0.01
G401, 10 µM	0.121 ± 0.0045
HT1080, 0.00017 µM	1.06 ± 0.028
HT1080, 0.00051 µM	1.09 ± 0.049
HT1080, 0.00152 µM	1.05 ± 0.051
HT1080, 0.00457 µM	1.07 ± 0.029
HT1080, 0.01372 µM	1.02 ± 0.044
HT1080, 0.04115 µM	1.05 ± 0.038
HT1080, 0.1235 µM	1.08 ± 0.062
HT1080, 0.3704 µM	1.06 ± 0.065
HT1080, 1.111 µM	1.02 ± 0.093
HT1080, 3.333 µM	0.959 ± 0.029
HT1080, 10 µM	0.41 ± 0.024
KHOS-240S, 0.00017 µM	1.06 ± 0.067
KHOS-240S, 0.00051 µM	1.05 ± 0.042
KHOS-240S, 0.00152 µM	1.01 ± 0.027
KHOS-240S, 0.00457 µM	0.999 ± 0.041
KHOS-240S, 0.01372 µM	0.939 ± 0.043
KHOS-240S, 0.04115 µM	0.828 ± 0.036
KHOS-240S, 0.1235 µM	0.762 ± 0.03
KHOS-240S, 0.3704 µM	0.713 ± 0.068
KHOS-240S, 1.111 µM	0.643 ± 0.092
KHOS-240S, 3.333 µM	0.521 ± 0.041
KHOS-240S, 10 µM	0.19 ± 0.0035
MES-SA, 0.00017 µM	0.911 ± 0.054
MES-SA, 0.00051 µM	0.9276 ± 0.0063
MES-SA, 0.00152 µM	0.909 ± 0.05
MES-SA, 0.00457 µM	0.85 ± 0.02
MES-SA, 0.01372 µM	0.837 ± 0.01
MES-SA, 0.04115 µM	0.741 ± 0.044
MES-SA, 0.1235 µM	0.679 ± 0.028
MES-SA, 0.3704 µM	0.667 ± 0.02
MES-SA, 1.111 µM	0.616 ± 0.03
MES-SA, 3.333 µM	0.409 ± 0.014
MES-SA, 10 µM	0.148 ± 0.0092
RD, 0.00017 µM	1.05 ± 0.037
RD, 0.00051 µM	1.09 ± 0.032
RD, 0.00152 µM	1.08 ± 0.051
RD, 0.00457 µM	1.08 ± 0.032
RD, 0.01372 µM	1.09 ± 0.053
RD, 0.04115 µM	1.09 ± 0.072
RD, 0.1235 µM	1.13 ± 0.076
RD, 0.3704 µM	1.13 ± 0.053
RD, 1.111 µM	1.11 ± 0.052
RD, 3.333 µM	0.677 ± 0.013
RD, 10 µM	0.269 ± 0.028
RD-ES, 0.00017 µM	0.963 ± 0.04
RD-ES, 0.00051 µM	0.971 ± 0.013
RD-ES, 0.00152 µM	0.929 ± 0.025
RD-ES, 0.00457 µM	0.96 ± 0.031
RD-ES, 0.01372 µM	0.917 ± 0.022
RD-ES, 0.04115 µM	0.873 ± 0.027
RD-ES, 0.1235 µM	0.873 ± 0.043
RD-ES, 0.3704 µM	0.861 ± 0.027
RD-ES, 1.111 µM	0.783 ± 0.011
RD-ES, 3.333 µM	0.5562 ± 0.0023
RD-ES, 10 µM	0.148 ± 0.042
SK-ES-1, 0.00017 µM	1.02 ± 0.045
SK-ES-1, 0.00051 µM	1.03 ± 0.028
SK-ES-1, 0.00152 µM	1.04 ± 0.058
SK-ES-1, 0.00457 µM	1 ± 0.067
SK-ES-1, 0.01372 µM	0.957 ± 0.018
SK-ES-1, 0.04115 µM	0.876 ± 0.023
SK-ES-1, 0.1235 µM	0.872 ± 0.055
SK-ES-1, 0.3704 µM	0.818 ± 0.053
SK-ES-1, 1.111 µM	0.702 ± 0.033
SK-ES-1, 3.333 µM	0.33 ± 0.013
SK-ES-1, 10 µM	0.181 ± 0.012
SK-LMS-1, 0.00017 µM	0.987 ± 0.047
SK-LMS-1, 0.00051 µM	0.991 ± 0.019
SK-LMS-1, 0.00152 µM	0.994 ± 0.023
SK-LMS-1, 0.00457 µM	1 ± 0.054
SK-LMS-1, 0.01372 µM	0.999 ± 0.045
SK-LMS-1, 0.04115 µM	0.954 ± 0.012
SK-LMS-1, 0.1235 µM	0.946 ± 0.04
SK-LMS-1, 0.3704 µM	0.913 ± 0.015
SK-LMS-1, 1.111 µM	0.839 ± 0.026
SK-LMS-1, 3.333 µM	0.673 ± 0.023
SK-LMS-1, 10 µM	0.183 ± 0.0094
SW982, 0.00017 µM	1.01 ± 0.011
SW982, 0.00051 µM	0.997 ± 0.049
SW982, 0.00152 µM	0.954 ± 0.041
SW982, 0.00457 µM	0.992 ± 0.021
SW982, 0.01372 µM	0.984 ± 0.055
SW982, 0.04115 µM	0.958 ± 0.077
SW982, 0.1235 µM	0.953 ± 0.021
SW982, 0.3704 µM	0.888 ± 0.029
SW982, 1.111 µM	0.544 ± 0.013
SW982, 3.333 µM	0.225 ± 0.0086
SW982, 10 µM	0.0452 ± 0.00079
SW1353, 0.00017 µM	1.07 ± 0.026
SW1353, 0.00051 µM	1.01 ± 0.026
SW1353, 0.00152 µM	0.975 ± 0.035
SW1353, 0.00457 µM	0.889 ± 0.058
SW1353, 0.01372 µM	0.859 ± 0.033
SW1353, 0.04115 µM	0.853 ± 0.049
SW1353, 0.1235 µM	0.787 ± 0.066
SW1353, 0.3704 µM	0.781 ± 0.041
SW1353, 1.111 µM	0.745 ± 0.038
SW1353, 3.333 µM	0.57 ± 0.014
SW1353, 10 µM	0.0859 ± 0.01
SYO-1, 0.00017 µM	0.933 ± 0.068
SYO-1, 0.00051 µM	0.814 ± 0.088
SYO-1, 0.00152 µM	0.734 ± 0.077
SYO-1, 0.00457 µM	0.674 ± 0.087
SYO-1, 0.01372 µM	0.588 ± 0.086
SYO-1, 0.04115 µM	0.519 ± 0.053
SYO-1, 0.1235 µM	0.451 ± 0.016
SYO-1, 0.3704 µM	0.396 ± 0.011
SYO-1, 1.111 µM	0.342 ± 0.008
SYO-1, 3.333 µM	0.248 ± 0.018
SYO-1, 10 µM	-0.0109 ± 0.0042
VA-ES-BJ, 0.00017 µM	1.08 ± 0.038
VA-ES-BJ, 0.00051 µM	1.05 ± 0.015
VA-ES-BJ, 0.00152 µM	1.06 ± 0.051
VA-ES-BJ, 0.00457 µM	1.02 ± 0.045
VA-ES-BJ, 0.01372 µM	1.04 ± 0.015
VA-ES-BJ, 0.04115 µM	1.03 ± 0.025
VA-ES-BJ, 0.1235 µM	1.06 ± 0.028
VA-ES-BJ, 0.3704 µM	1.04 ± 0.03
VA-ES-BJ, 1.111 µM	0.92 ± 0.05
VA-ES-BJ, 3.333 µM	0.612 ± 0.021
VA-ES-BJ, 10 µM	0.355 ± 0.012
